Test results from US7691601B2, “Medium for detecting and/or identifying of microorganisms” (priority 2003, dated 2010).

What was measured:
free esterases in stools [1] = experiment: Coloration at the point of deposit of the stool on Candida detection medium; assay type: biochemical; conditions: summary in words
Protocol: (§1) Preparation of the detection medium: A volume of 250 ml of detection medium is prepared from a powdered medium having the following composition:
(§2) Melting is carried out at 100° C., and the medium is autoclaved at 121° C. for 15 minutes. The additives are then added to the medium: Magenta C8 (500 mg/l; B-7102, BIOSYNTH, Staad, Switzerland); X-glucoside (75 mg/l; B-7250, BIOSYNTH, Staad, Switzerland); cefsulodine (10 mg/l; C 4786, Sigma, St Quentin Fallavier, France), and also the esterase inhibitor: • ? O,O-diethyl p-nitrophenyl phosphate: 5 mg/l • ? O,O-dimethyl p-nitrophenyl phosphate: 25 mg/l or • ? O,O-di-(2-chloroethyl)-O-(3-chloro-4-methylcoumarin-7-yl)phosphate: 75 mg/l
(§3) The various selection media thus obtained are then poured into Petri dishes.
(§4) Seeding of yeast of the Candida genus: 10 μl of stools are deposited onto a Petri dish, and this stool suspension is mixed or not mixed with 10 μl of a suspension of Candida and isolated as 3 dials on a Petri dish. Various stools and various strains of Candida genus originating from the applicant's collection are used according to this protocol. The Petri dishes are incubated at 37° C. for 24 hours.
(§5) The appearance of a coloration at the point of deposit of the stool and in the Candida colonies is read according to a semi-quantitative scale: • 0=absence of coloration • 0.5=trace coloration • 1=weak coloration • 2=strong coloration.

Salmonella Enteritidis = experiment: Coloration of Salmonella Enteritidis colonies on detection medium; assay type: cell-based; set-up: key: 0=no coloration; 0.5=trace of coloration; 1=weak coloration; 2=strong coloration
Protocol: as §1
(§6) Melting is carried out at 100° C., and the medium is autoclaved at 121° C. for 15 minutes. The additives are then added to the medium: Magenta C8 (500 mg/l; B-7102, BIOSYNTH, Staad, Switzerland); X-glucoside (75 mg/l; B-7250, BIOSYNTH, Staad, Switzerland); cefsulodine (10 mg/l; C 4786, Sigma, St Quentin Fallavier, France) and various concentrations of the inhibitor O,O-diethyl p-nitrophenyl phosphate (Paraoxon® ethyl; CAS No. 311-45-5; 36186, Riedel-de Haën, St Quentin Fallavier, France; 0; 1; 5 or 10 mg/l).
(§7) The various detection media thus obtained are then poured into Petri dishes.
(§8) Seeding of Salmonella bacteria: 10 μl of stools are deposited onto a Petri dish, this stool suspension is mixed or not mixed with 10 μl of a suspension of Salmonella (0.5 McF) and isolated as 3 dials on a Petri dish. Various […] and various Salmonella strains originating from the applicant's collection are used according to this protocol. The Petri dishes are incubated at 37° C. for 24 hours. The appearance of a coloration at the point of deposit of the stool (“deposit” column) and at the Salmonella colony (“colony” column) is read according to a semi-quantitative scale: • 0=no coloration • 0.5=trace of coloration • 1=weak coloration • 2=strong coloration The results obtained are given in Table 1.
(§9) Melting is carried out at 100° C., and the medium is autoclaved at 121° C. for 15 minutes. The additives are then added to the medium: Magenta C8 (500 mg/l; B-7102, BIOSYNTH, Staad, Switzerland); X-glucoside (75 mg/l; B-7250, BIOSYNTH, Staad, Switzerland); cefsulodine (10 mg/l; C 4786, Sigma, St Quentin Fallavier, France) and various concentrations of the inhibitor O,O-dimethyl p-nitrophenyl phosphate (Paraoxon® methyl; CAS No. 950-35-6; Riedel-de Haën, St Quentin Fallavier, France; 5, 10, 25 mg/l).
(§10) Seeding of Salmonella bacteria: The Petri dishes are inoculated, incubated and read as in Example 1.
(§11) Preparation of the detection medium: 250 ml of the medium of Example 1, in which the O,O-diethyl p-nitrophenyl phosphate is replaced with various concentrations of O,O-di-(2-chloroethyl)-O-(3-chloro-4-methylcoumarin-7-yl)phosphate (Haloxon®; CAS No. 321-55-1; R276995, Sigma, St Quentin Fallavier, France; 0; 1; 10; 100 or 1000 mg/l), are prepared according to the method of Example 1.
as §3

Salmonella Typhi = experiment: Coloration of Salmonella Typhi colonies on detection medium; assay type: cell-based; set-up: key: 0=no coloration; 0.5=trace of coloration; 1=weak coloration; 2=strong coloration
Protocol: as §1, §6, §7, §8, §9, §10, §11, §3

Candida krusei = experiment: Coloration of Candida krusei colonies on detection medium; assay type: cell-based; set-up: key: 0=absence of coloration; 0.5=trace coloration; 1=weak coloration; 2=strong coloration; conditions: Table 4, 75 mg/l
Protocol: as §1, §2, §3, §4, §5

[2] = system: free esterases in a stool sample; experiment: Coloration at the point of deposit of the stool on Salmonella detection medium (Magenta C8); assay type: biochemical; set-up: key to Deposit coloration: 0=no coloration; 0.5=trace of coloration; 1=weak coloration; 2=strong coloration; conditions: for Deposit coloration: Table 3
Protocol: as §1, §6, §7, §8, §9, §10, §11, §3

free esterases in stools [3] = experiment: Coloration at the point of deposit of the stool on Candida detection medium; assay type: biochemical; set-up: key: 0=absence of coloration; 0.5=trace coloration; 1=weak coloration; 2=strong coloration; conditions: Table 4, 75 mg/l, no strain
Protocol: as §1, §2, §3, §4, §5

[4] = Colonies column read for stool without added strain, Candida detection medium; set-up: key: 0=absence of coloration; 0.5=trace coloration; 1=weak coloration; 2=strong coloration; conditions: Table 4, 75 mg/l, no strain
Protocol: as §1, §2, §3, §4, §5

Which “Aspecific enzymatic reactions due to the presence of free enzymes” value (free esterases in stools [1]) does the source give for Cc1c(Cl)c(=O)oc2cc(OP(=O)(OCCCl)OCCCl)ccc12 [O,O-di-(2-chloroethyl)-O-(3-chloro-4-methylcoumarin-7-yl) phosphate] here?
The value was “greatly inhibited”.

What about the Colonies coloration (Salmonella Enteritidis; Table 3, 1 mg/l, stool A) of the same molecule?
The Colonies coloration was 2.

And the Colonies coloration (Salmonella Enteritidis; Table 3, 1 mg/l, stool B)?
Its Colonies coloration is 2.

What about the Colonies coloration (Salmonella Enteritidis; Table 3, 10 mg/l, stool A) of the same molecule?
Its Colonies coloration is 2.

What about the Colonies coloration (Salmonella Enteritidis; Table 3, 10 mg/l, stool B) of the same molecule?
Its Colonies coloration is 2.

What about the Colonies coloration (Salmonella Enteritidis; Table 3, 100 mg/l, stool A) of the same molecule?
Its Colonies coloration is 2.

And the Colonies coloration (Salmonella Enteritidis; Table 3, 100 mg/l, stool B)?
The Colonies coloration was 2.

What about the Colonies coloration (Salmonella Enteritidis; Table 3, 1000 mg/l, stool A) of the same molecule?
The Colonies coloration was 2.

What about the Colonies coloration (Salmonella Enteritidis; Table 3, 1000 mg/l, stool B) of the same molecule?
The Colonies coloration was 2.

And the Colonies coloration (Salmonella Typhi; Table 3, 1 mg/l, stool A)?
The Colonies coloration was 1.

What about the Colonies coloration (Salmonella Typhi; Table 3, 1 mg/l, stool B) of the same molecule?
Its Colonies coloration is 1.

What about the Colonies coloration (Salmonella Typhi; Table 3, 10 mg/l, stool A) of the same molecule?
Its Colonies coloration is 1.

And the Colonies coloration (Salmonella Typhi; Table 3, 10 mg/l, stool B)?
The Colonies coloration was 1.

What about the Colonies coloration (Salmonella Typhi; Table 3, 100 mg/l, stool A) of the same molecule?
Its Colonies coloration is 1.

What about the Colonies coloration (Salmonella Typhi; Table 3, 100 mg/l, stool B) of the same molecule?
The Colonies coloration was 1.

And the Colonies coloration (Salmonella Typhi; Table 3, 1000 mg/l, stool A)?
Its Colonies coloration is 1.

And the Colonies coloration (Salmonella Typhi; Table 3, 1000 mg/l, stool B)?
Its Colonies coloration is 1.

And the Colonies coloration (Candida krusei; stool A)?
Its Colonies coloration is 0.5.

What about the Colonies coloration (Candida krusei; stool B) of the same molecule?
Its Colonies coloration is 0.5.

What about the Deposit coloration ([2]; 1 mg/l, stool A, Salmonella Enteritidis) of the same molecule?
Its Deposit coloration is 1.

What about the Deposit coloration ([2]; 1 mg/l, stool A, Salmonella Paratyphi A) of the same molecule?
The Deposit coloration was 1.

And the Deposit coloration ([2]; 1 mg/l, stool A, Salmonella Typhi)?
The Deposit coloration was 1.

And the Deposit coloration ([2]; 1 mg/l, stool A, no strain)?
Its Deposit coloration is 1.

And the Deposit coloration ([2]; 1 mg/l, stool B, Salmonella Enteritidis)?
The Deposit coloration was 0.

And the Deposit coloration ([2]; 1 mg/l, stool B, Salmonella Paratyphi A)?
The Deposit coloration was 0.

What about the Deposit coloration ([2]; 1 mg/l, stool B, Salmonella Typhi) of the same molecule?
Its Deposit coloration is 0.

What about the Deposit coloration ([2]; 1 mg/l, stool B, no strain) of the same molecule?
The Deposit coloration was 1.

What about the Deposit coloration ([2]; 10 mg/l, stool A, Salmonella Enteritidis) of the same molecule?
Its Deposit coloration is 1.

What about the Deposit coloration ([2]; 10 mg/l, stool A, Salmonella Paratyphi A) of the same molecule?
Its Deposit coloration is 1.

And the Deposit coloration ([2]; 10 mg/l, stool A, Salmonella Typhi)?
The Deposit coloration was 1.

And the Deposit coloration ([2]; 10 mg/l, stool A, no strain)?
The Deposit coloration was 1.

What about the Deposit coloration ([2]; 10 mg/l, stool B, Salmonella Enteritidis) of the same molecule?
The Deposit coloration was 0.

And the Deposit coloration ([2]; 10 mg/l, stool B, Salmonella Paratyphi A)?
Its Deposit coloration is 0.

And the Deposit coloration ([2]; 10 mg/l, stool B, Salmonella Typhi)?
The Deposit coloration was 0.

And the Deposit coloration ([2]; 10 mg/l, stool B, no strain)?
The Deposit coloration was 0.5.

What about the Deposit coloration ([2]; 100 mg/l, stool A, Salmonella Enteritidis) of the same molecule?
The Deposit coloration was 0.5.

What about the Deposit coloration ([2]; 100 mg/l, stool A, Salmonella Paratyphi A) of the same molecule?
Its Deposit coloration is 0.5.

What about the Deposit coloration ([2]; 100 mg/l, stool A, Salmonella Typhi) of the same molecule?
The Deposit coloration was 0.5.

What about the Deposit coloration ([2]; 100 mg/l, stool A, no strain) of the same molecule?
The Deposit coloration was 0.5.

And the Deposit coloration ([2]; 100 mg/l, stool B, Salmonella Enteritidis)?
Its Deposit coloration is 0.

What about the Deposit coloration ([2]; 100 mg/l, stool B, Salmonella Paratyphi A) of the same molecule?
The Deposit coloration was 0.

What about the Deposit coloration ([2]; 100 mg/l, stool B, Salmonella Typhi) of the same molecule?
Its Deposit coloration is 0.

And the Deposit coloration ([2]; 100 mg/l, stool B, no strain)?
The Deposit coloration was 0.

What about the Deposit coloration ([2]; 1000 mg/l, stool A, Salmonella Enteritidis) of the same molecule?
Its Deposit coloration is 0.

And the Deposit coloration ([2]; 1000 mg/l, stool A, Salmonella Paratyphi A)?
Its Deposit coloration is 0.

What about the Deposit coloration ([2]; 1000 mg/l, stool A, Salmonella Typhi) of the same molecule?
Its Deposit coloration is 0.

And the Deposit coloration ([2]; 1000 mg/l, stool A, no strain)?
Its Deposit coloration is 0.

What about the Deposit coloration ([2]; 1000 mg/l, stool B, Salmonella Enteritidis) of the same molecule?
The Deposit coloration was 0.

And the Deposit coloration ([2]; 1000 mg/l, stool B, Salmonella Paratyphi A)?
Its Deposit coloration is 0.

What about the Deposit coloration ([2]; 1000 mg/l, stool B, Salmonella Typhi) of the same molecule?
The Deposit coloration was 0.

And the Deposit coloration ([2]; 1000 mg/l, stool B, no strain)?
The Deposit coloration was 0.

What about the “Aspecific enzymatic reactions due to the presence of free enzymes” value ([2]; stools, Salmonella detection medium, summary in words) of the same molecule?
The value was “greatly inhibited”.

What about the Deposit coloration (free esterases in stools [3]; stool A) of the same molecule?
Its Deposit coloration is 0.

And the Deposit coloration (free esterases in stools [3]; stool B)?
Its Deposit coloration is 0.

And the Colonies coloration ([4]; stool A)?
The Colonies coloration was 0.

And the Colonies coloration ([4]; stool B)?
Its Colonies coloration is 0.
